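Compound exposure: 48 hours, 5 concentrations, 96-well plates. GI50: concentration for 50% inhibition of growth.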 The source made the active and inactive calls. No stated cut-off is given here; in the data, active = GI50 up to about 1.1 µM and inactive = higher.
Legend:
Assay in all cases: DTP human tumour cell line panel, 48 h
LOX IMVI = tested on: LOX IMVI
UACC-62 = tested on: UACC-62
U-251 = tested on: U-251
HCT-15 = tested on: HCT-15
UACC-257 = tested on: UACC-257
IGROV-1 = tested on: IGROV-1
HT-29 = tested on: HT-29
NCI-H23 = tested on: NCI-H23
SF-295 = tested on: SF-295
Malme-3M = tested on: Malme-3M
HCC 2998 = tested on: HCC 2998
EKVX = tested on: EKVX
HOP-92 = tested on: HOP-92
A498 = tested on: A498
MDA-N = tested on: MDA-N
NCI-H226 = tested on: NCI-H226
OVCAR-8 = tested on: OVCAR-8
NCI-H460 = tested on: NCI-H460
NCI-H522 = tested on: NCI-H522
K562 = tested on: K562
CCRF-CEM = tested on: CCRF-CEM
A549 = tested on: A549
SK-MEL-2 = tested on: SK-MEL-2
OVCAR-5 = tested on: OVCAR-5
COLO 205 = tested on: COLO 205
RPMI-8226 = tested on: RPMI-8226
MDA-MB-231 = tested on: MDA-MB-231
NCI/ADR-RES = tested on: NCI/ADR-RES
ACHN = tested on: ACHN
SNB-75 = tested on: SNB-75
SNB-19 = tested on: SNB-19
T47D = tested on: T47D
SF-539 = tested on: SF-539
SF-268 = tested on: SF-268
SK-MEL-5 = tested on: SK-MEL-5
MDA-MB-435 = tested on: MDA-MB-435
BT-549 = tested on: BT-549
SW-620 = tested on: SW-620
CAKI-1 = tested on: CAKI-1
SN12C = tested on: SN12C
MCF7 = tested on: MCF7
M14 = tested on: M14
SR = tested on: SR
HL-60 = tested on: HL-60
Hs-578T = tested on: Hs-578T
PC-3 = tested on: PC-3
HOP-62 = tested on: HOP-62
SK-OV-3 = tested on: SK-OV-3
786-0 = tested on: 786-0
HCT-116 = tested on: HCT-116
OVCAR-3 = tested on: OVCAR-3
DU-145 = tested on: DU-145
OVCAR-4 = tested on: OVCAR-4
KM12 = tested on: KM12
MOLT-4 = tested on: MOLT-4
TK-10 = tested on: TK-10
SK-MEL-28 = tested on: SK-MEL-28
RXF 393 = tested on: RXF 393
UO-31 = tested on: UO-31

SMILES: CN(/N=C/c1ccc(Cl)c(Cl)c1)C1=NCCCCN1
- GI50 (LOX IMVI): 13.2 µM (inactive)
- GI50 (UACC-62): 23 µM (inactive)
- GI50 (U-251): 26.6 µM (inactive)
- GI50 (HCT-15): 26.2 µM
- GI50 (UACC-257): 22.6 µM (inactive)
- GI50 (IGROV-1): 52.6 µM (inactive)
- GI50 (HT-29): 29.2 µM (inactive)
- GI50 (NCI-H23): 55.5 µM (inactive)
- GI50 (SF-295): 34.4 µM (inactive)
- GI50 (Malme-3M): 17.8 µM (inactive)
- GI50 (HCC 2998): 24.9 µM (inactive)
- GI50 (EKVX): > 100 µM (inactive)
- GI50 (HOP-92): 18.9 µM (inactive)
- GI50 (A498): 18.2 µM (inactive)
- GI50 (MDA-N): 19.9 µM (inactive)
- GI50 (NCI-H226): 2.45 µM (inactive)
- GI50 (OVCAR-8): 72.3 µM (inactive)
- GI50 (NCI-H460): 42.5 µM (inactive)
- GI50 (NCI-H522): 17.8 µM (inactive)
- GI50 (K562): 21.4 µM (inactive)
- GI50 (CCRF-CEM): 31 µM (inactive)
- GI50 (A549): 62.4 µM (inactive)
- GI50 (SK-MEL-2): 20.1 µM (inactive)
- GI50 (OVCAR-5): 27.9 µM (inactive)
- GI50 (COLO 205): 16.7 µM (inactive)
- GI50 (RPMI-8226): 27.9 µM (inactive)
- GI50 (MDA-MB-231): 32 µM (inactive)
- GI50 (NCI/ADR-RES): 66.8 µM (inactive)
- GI50 (ACHN): 44.6 µM (inactive)
- GI50 (SNB-75): 50.2 µM (inactive)
- GI50 (SNB-19): 45.4 µM (inactive)
- GI50 (T47D): 16.6 µM (inactive)
- GI50 (SF-539): 29.3 µM (inactive)
- GI50 (SF-268): 51.2 µM (inactive)
- GI50 (SK-MEL-5): 14.6 µM (inactive)
- GI50 (MDA-MB-435): 16.3 µM (inactive)
- GI50 (BT-549): 31 µM (inactive)
- GI50 (SW-620): 15.6 µM (inactive)
- GI50 (CAKI-1): 23.9 µM (inactive)
- GI50 (SN12C): 42 µM (inactive)
- GI50 (MCF7): 19.8 µM (inactive)
- GI50 (M14): 15.4 µM (inactive)
- GI50 (SR): 41.3 µM (inactive)
- GI50 (HL-60): 19.3 µM (inactive)
- GI50 (Hs-578T): 61 µM (inactive)
- GI50 (PC-3): 25.3 µM (inactive)
- GI50 (HOP-62): 16.7 µM (inactive)
- GI50 (SK-OV-3): 53.3 µM (inactive)
- GI50 (786-0): 20.6 µM (inactive)
- GI50 (HCT-116): 24.4 µM (inactive)
- GI50 (OVCAR-3): 41.6 µM (inactive)
- GI50 (DU-145): 91.2 µM (inactive)
- GI50 (OVCAR-4): 44.1 µM (inactive)
- GI50 (KM12): 19.6 µM (inactive)
- GI50 (MOLT-4): 21.8 µM (inactive)
- GI50 (TK-10): 69.8 µM (inactive)

SMILES: CO/C=C(/C(=O)OC)c1ccccc1[C@H]1C[C@@H]1c1ccccc1
- GI50 (SK-MEL-28): 25.8 µM (inactive)
- GI50 (UACC-62): 14.9 µM (inactive)
- GI50 (U-251): 23.1 µM (inactive)
- GI50 (HCT-15): 23.4 µM
- GI50 (UACC-257): 15.8 µM (inactive)
- GI50 (IGROV-1): 19.9 µM (inactive)
- GI50 (HT-29): 18.6 µM (inactive)
- GI50 (NCI-H23): 23.2 µM (inactive)
- GI50 (SF-295): 23.1 µM (inactive)
- GI50 (Malme-3M): 13.1 µM (inactive)
- GI50 (HCC 2998): 20.6 µM (inactive)
- GI50 (EKVX): 15.4 µM (inactive)
- GI50 (HOP-92): 21.3 µM (inactive)
- GI50 (A498): 27.9 µM (inactive)
- GI50 (MDA-N): 18.7 µM (inactive)
- GI50 (NCI-H226): 20.5 µM (inactive)
- GI50 (OVCAR-8): 28.7 µM (inactive)
- GI50 (NCI-H460): 19.7 µM (inactive)
- GI50 (NCI-H522): 12.9 µM (inactive)
- GI50 (K562): 26.2 µM (inactive)
- GI50 (CCRF-CEM): 10.6 µM (inactive)
- GI50 (A549): 21.1 µM (inactive)
- GI50 (SK-MEL-2): 17.2 µM (inactive)
- GI50 (OVCAR-5): 73.8 µM (inactive)
- GI50 (COLO 205): 14 µM (inactive)
- GI50 (RXF 393): 49.3 µM (inactive)
- GI50 (RPMI-8226): 12.6 µM (inactive)
- GI50 (MDA-MB-231): 31.6 µM (inactive)
- GI50 (NCI/ADR-RES): 24 µM (inactive)
- GI50 (ACHN): 22.5 µM (inactive)
- GI50 (SNB-19): 48.3 µM (inactive)
- GI50 (T47D): 18.6 µM (inactive)
- GI50 (SF-539): 21.2 µM (inactive)
- GI50 (SF-268): 24.4 µM (inactive)
- GI50 (SK-MEL-5): 8.02 µM (inactive)
- GI50 (MDA-MB-435): 17.8 µM (inactive)
- GI50 (BT-549): 20.5 µM (inactive)
- GI50 (CAKI-1): 16 µM (inactive)
- GI50 (SN12C): 28.6 µM (inactive)
- GI50 (MCF7): 29 µM (inactive)
- GI50 (UO-31): 29.4 µM (inactive)
- GI50 (M14): 19.2 µM (inactive)
- GI50 (SR): 14.2 µM (inactive)
- GI50 (HL-60): 21.9 µM (inactive)
- GI50 (Hs-578T): 33.7 µM (inactive)
- GI50 (PC-3): 22.8 µM (inactive)
- GI50 (HOP-62): 35.2 µM (inactive)
- GI50 (SK-OV-3): 16.7 µM (inactive)
- GI50 (786-0): 31.7 µM (inactive)
- GI50 (HCT-116): 17.4 µM (inactive)
- GI50 (OVCAR-3): 18.5 µM (inactive)
- GI50 (DU-145): 27.2 µM (inactive)
- GI50 (OVCAR-4): 17.8 µM (inactive)
- GI50 (KM12): 20.1 µM (inactive)
- GI50 (MOLT-4): 30.1 µM (inactive)
- GI50 (TK-10): 28 µM (inactive)
